{"source": "patent US6933304B2", "about": "“Heteroarylalkanoic acids as integrin receptor antagonists” (Pharmacia Corporation, priority 2000, dated 2005)", "molecular_target": "T1, Human vitronectin receptor αVβ3 (Homo sapiens, UniProt P05106+P06756)", "T1 construct": "Human vitronectin receptors αVβ3 and αVβ5 were purified from human placenta; from tissue; host or cells: human placenta", "T1 sequence (P06756 31-889 limits assumed)": "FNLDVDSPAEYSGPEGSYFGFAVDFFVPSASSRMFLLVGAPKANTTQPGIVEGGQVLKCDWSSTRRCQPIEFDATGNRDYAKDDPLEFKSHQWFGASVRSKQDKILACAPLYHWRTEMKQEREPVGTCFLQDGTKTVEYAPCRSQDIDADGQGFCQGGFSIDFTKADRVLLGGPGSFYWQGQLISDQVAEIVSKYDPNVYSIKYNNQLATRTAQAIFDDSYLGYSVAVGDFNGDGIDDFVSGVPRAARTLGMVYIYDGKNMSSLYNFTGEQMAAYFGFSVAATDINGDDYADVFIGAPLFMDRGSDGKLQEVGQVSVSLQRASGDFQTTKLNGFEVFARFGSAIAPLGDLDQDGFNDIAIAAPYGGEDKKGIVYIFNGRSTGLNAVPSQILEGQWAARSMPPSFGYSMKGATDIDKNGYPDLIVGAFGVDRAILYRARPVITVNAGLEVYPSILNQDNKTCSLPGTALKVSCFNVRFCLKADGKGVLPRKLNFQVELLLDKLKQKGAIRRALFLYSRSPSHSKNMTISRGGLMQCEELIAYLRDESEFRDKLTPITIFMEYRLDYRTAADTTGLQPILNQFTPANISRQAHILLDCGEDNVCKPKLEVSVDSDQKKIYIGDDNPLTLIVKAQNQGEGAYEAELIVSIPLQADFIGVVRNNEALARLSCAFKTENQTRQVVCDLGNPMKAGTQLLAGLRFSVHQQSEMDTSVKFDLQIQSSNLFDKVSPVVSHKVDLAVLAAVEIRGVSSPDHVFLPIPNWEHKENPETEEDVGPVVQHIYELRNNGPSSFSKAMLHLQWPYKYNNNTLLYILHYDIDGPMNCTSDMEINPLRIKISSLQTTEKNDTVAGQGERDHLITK", "T1 sequence (P06756 891-1048 partner limits assumed)": "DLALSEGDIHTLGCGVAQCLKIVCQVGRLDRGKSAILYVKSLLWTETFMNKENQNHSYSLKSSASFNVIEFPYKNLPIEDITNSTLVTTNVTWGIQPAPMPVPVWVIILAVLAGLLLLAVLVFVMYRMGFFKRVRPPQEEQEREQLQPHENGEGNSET", "T1 sequence (P05106 27-788)": "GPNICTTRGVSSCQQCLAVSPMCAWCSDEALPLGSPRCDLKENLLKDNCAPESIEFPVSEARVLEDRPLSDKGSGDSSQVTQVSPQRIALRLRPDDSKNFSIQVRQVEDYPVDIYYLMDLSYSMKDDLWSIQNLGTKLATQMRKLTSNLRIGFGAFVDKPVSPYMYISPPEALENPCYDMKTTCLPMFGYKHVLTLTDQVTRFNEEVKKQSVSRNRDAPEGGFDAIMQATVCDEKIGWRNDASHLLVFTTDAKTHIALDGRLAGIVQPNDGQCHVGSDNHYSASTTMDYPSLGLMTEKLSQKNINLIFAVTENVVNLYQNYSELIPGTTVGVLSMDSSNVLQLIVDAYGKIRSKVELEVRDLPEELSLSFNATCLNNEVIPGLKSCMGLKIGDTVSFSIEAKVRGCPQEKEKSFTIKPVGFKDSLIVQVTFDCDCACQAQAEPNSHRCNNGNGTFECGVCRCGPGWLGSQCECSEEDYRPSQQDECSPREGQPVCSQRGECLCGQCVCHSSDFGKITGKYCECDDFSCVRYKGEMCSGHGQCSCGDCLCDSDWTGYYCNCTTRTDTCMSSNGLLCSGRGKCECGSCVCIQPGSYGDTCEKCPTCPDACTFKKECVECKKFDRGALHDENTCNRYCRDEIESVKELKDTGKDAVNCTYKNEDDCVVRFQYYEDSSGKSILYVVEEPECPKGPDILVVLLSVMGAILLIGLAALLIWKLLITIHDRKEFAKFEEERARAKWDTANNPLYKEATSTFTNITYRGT", "assay": "Vitronectin adhesion assay (solid phase receptor assay)", "type": "binding", "conditions": "positive control included on each plate; read-out: IC50 αVβ3 antagonist (positive control)", "protocol": "Human vitronectin receptors αVβ3 and αVβ5 were purified from human placenta as previously described [Pytela et al., Methods in Enzymology, 144:475-489 (1987)]. Human vitronectin was purified from fresh frozen plasma as previously described [Yatohgo et al., Cell Structure and Function, 13:281-292 (1988)]. Biotinylated human vitronectin was prepared by coupling NHS-biotin from Pierce Chemical Company (Rockford, Ill.) to purified vitronectin as previously described [Charo et al., J. Biol. Chem., 266(3):1415-1421 (1991)]. Assay buffer, OPD substrate tablets, and RIA grade BSA were obtained from Sigma (St. Louis, Mo.). Anti-biotin antibody was obtained from Sigma (St. Louis, Mo.). Nalge Nunc-Immuno microtiter plates were obtained from Nalge Company (Rochester, N.Y.).\nThis assay was essentially the same as previously reported [Niiya et al., Blood, 70:475-483 (1987)]. […] The plate was read with a microtiter plate reader at a wavelength of 450 nm and when the maximum-binding control wells reached an absorbance of about 1.0, the final A450 were recorded for analysis. The data were analyzed using a macro written for use with the EXCEL spreadsheet program. The mean, standard deviation, and % CV were determined for duplicate concentrations. […]", "data": [{"substance": "β-[[2-[[5-[(aminoiminomethyl)amino]-1-oxopentyl]amino]-1-oxoethyl]amino]-3-pyridinepropanoic acid", "values": [{"measurement": "IC50", "result": "3 to 10", "unit": "nM"}]}]}
